In test [1] the test system is mice. Kind of test: Capacity to antagonise Haloperidol-induced catalepsy. Particulars: orally 10 mg/kg and 20 mg/kg; Haloperidol 4 mg/Kg endoperitoneal. In kind it is in vivo. As to the method: (§1) 10 CD1 male mice were used per group. For this test, a steel bar, 10 cm long, was placed at a height of 4.5 cm above the support surface. Onto this, were placed the front legs of the animals. The presence of catalepsy was determined by measuring the time (in seconds) the animal remained in the posture placed. Later, this parameter was placed relatively, on a scale of rising values (0 to 5) through which, the degree of catalepsy determined in both control animals and in these subjected to treatment with the substances under test could be proportionately expressed.
For this study, product ST 1535 was used. Catalepsy was induced in the animals through the endoperitoneal administration of Haloperidol at a dose of 4 mg/Kg, two hours prior measuring catalepsy in the animals, the presence of which was determined according to the method described previously.
After scoring for catalepsy by Haloperidol, the animals were treated orally, with a dose equal to 10 mg/kg and 20 mg/kg of the product ST 1535. Then 60 minutes after treatment, the animals were subjected to further catalepsy scoring, which was carried out at the following times after ST 1535 administration: 120′, 240′, 300′.

Another test deals with human A2a receptor (Homo sapiens, UniProt P29274). The note with it: ratio of receptor affinity (selectivity).
human A2a receptor, sequence (P29274 whole entry): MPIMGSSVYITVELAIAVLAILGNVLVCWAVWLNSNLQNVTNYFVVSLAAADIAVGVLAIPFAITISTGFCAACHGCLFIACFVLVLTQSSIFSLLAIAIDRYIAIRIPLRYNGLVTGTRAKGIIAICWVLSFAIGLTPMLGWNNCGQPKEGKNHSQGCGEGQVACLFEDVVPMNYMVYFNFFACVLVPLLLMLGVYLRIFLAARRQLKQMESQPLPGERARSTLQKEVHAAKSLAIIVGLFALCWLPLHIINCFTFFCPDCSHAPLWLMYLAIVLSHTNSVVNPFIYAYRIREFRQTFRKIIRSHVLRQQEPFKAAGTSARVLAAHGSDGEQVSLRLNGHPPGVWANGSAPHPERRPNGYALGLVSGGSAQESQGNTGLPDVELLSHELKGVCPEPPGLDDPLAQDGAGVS
Test [2] concerns mice. Kind of test: Capacity to antagonise CGS 21680 induced catalepsy. In kind it is in vivo. The note with it: orally 5 mg/Kg and 10 mg/Kg, 30 minutes prior to CGS 21680 (10 μg/5 μl/mouse i.c.v.); scored 30′, 60′, 120′, 180′. As to the method: as §1
For this study, the product ST 1535 was used. Catalepsy was induced in the animals through the intracerebroventricular administration of CGS 21680 (10 μg/5 μl/mouse), 30 minutes prior to testing for the catalepsy score. The test compound was administered orally at a dose of 5 mg/Kg and 10 mg/Kg , 30 minutes prior to treatment with CGS 21680.
The catalepsy score was derived in the manner described following treatment with OGS 21680 after the following times: 30′, 60′ 120′, 180′.

Another test concerns CD1 male mice. Kind of test: Capacity of the products to induce catalepsy in mice. In kind it is in vivo. Particulars: endoperitoneal, 30 minutes prior to the test. As to the method: as §1
The reference products and these in this study were administered endoperitoneally, in a volume of 10 ml/kg, 30 minutes prior to the test.
Except for CGS 21680 (reference compound) which was dissolved in 0.9% NaCl, the products in the study and the control antagonist ZM 241385 were solubilised in DMSO and then diluted in Cremofor EL and 0.9% NaCl (final concentrations: DMSO 15%, Cremofor EL 15%, NaCl 0.9%).

The subject of test [3] is mice. Kind of test: Forced swim test in mice. In kind it is in vivo. The note with it: 60 minutes before the test; 4 minutes of testing period. As for the experimental part: Mice were dropped individually into glass cylinders (height: 25 cm, internal diameter 10 cm) containing 10 cm water, maintained at 23° C. The immobility time (sec) was measured during 4 minutes of test. A mouse was judged to be immobile when it remained floating in the water, making only the necessary movements to keep its head above water. Test compound ST 1535 was administered orally to mice, 60 minutes before the test.

One compound from patent US7528252B2, “Derivatives of triazoly-imidazopyridine useful as ligands of the adenosine A2a receptor and their use as medicaments” (Sigma-Tau Industrie Farmaceutiche Riunite S.p.A., priority 2002, dated 2009) can be followed below.

In the case of `CCCCc1nc(N)c2nc(-n3nccn3)n(C)c2n1` [ST 1535, 2-butyl-9-methyl-8-(2H-1,2,3-triazol-2-yl)-9H-purine-6-ylamine], the “effect on Haloperidol induced catalepsy (FIG. 3)” value in the test with mice [1] is reported as “reduces the appearance of catalepsy in mice”. The KiA1/KiA2a at human A2a receptor was 47. Further, in the test with mice [2], the “effect on CGS 21680-induced catalepsy (FIG. 2)” value is “significantly antagonises the appearance of catalepsy at all the observed times”. For the same compound, the “appearance of catalepsy in mice (FIG. 1)” value in the test with CD1 male mice is reported as “none of them brought about the appearance of catalepsy in mice”. Also, the “time of immobility, forced swim test (FIG. 5)” value in the test on mice [3] is “reduces, in a dose-dependant manner, the time of immobility of the animal”.
